Tests used:
[1] = target: T1, Vitamin K epoxide reductase complex subunit 1 (Rattus norvegicus, UniProt Q6TEK4); experiment: Inhibition of VKORC1 in rat liver microsomes in presence of 0.003 to 0.2 mM vitamin K
T1 sequence (Q6TEK4 whole entry): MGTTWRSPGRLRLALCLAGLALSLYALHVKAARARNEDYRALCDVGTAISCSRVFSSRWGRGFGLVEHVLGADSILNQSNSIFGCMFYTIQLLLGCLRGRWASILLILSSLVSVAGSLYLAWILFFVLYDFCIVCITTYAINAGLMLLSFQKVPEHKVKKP

Rattus norvegicus [2] = experiment: Anticoagulant activity in Sprague-Dawley rat assessed as increase of prothombin time at 10 mg/kg, po after 24 hrs relative to control; format: functional
Liver [3] = experiment: Drug uptake in Sprague-Dawley rat liver assessed per gram of liver at 10 mg/kg, po after 24 hrs by HPLC-UV analysis; format: ADME, organism-based; settings: in vivo
Liver [4] = experiment: Drug uptake in Sprague-Dawley rat liver assessed per gram of liver at 10 mg/kg, po after 72 hrs by HPLC-UV analysis; format: ADME, organism-based; settings: in vivo
Liver [5] = experiment: Drug uptake in Sprague-Dawley rat liver assessed per gram of liver at 10 mg/kg, po by HPLC-UV analysis; format: ADME, organism-based; settings: in vivo
Rattus norvegicus [6] = experiment: Anticoagulant activity in Sprague-Dawley rat assessed as increase of prothombin time at 10 mg/kg, po after 7 hrs relative to control; format: functional
Rattus norvegicus [7] = experiment: Anticoagulant activity in Sprague-Dawley rat assessed as increase of prothombin time at 10 mg/kg, po after 72 hrs relative to control; format: functional
Liver [8] = experiment: Drug uptake in Sprague-Dawley rat liver assessed per gram of liver at 10 mg/kg, po after 7 hrs by HPLC-UV analysis; format: ADME, organism-based; settings: in vivo

| SMILES | Ki [1] [nM] | fold change (FC) (Rattus norvegicus [2]) | Drug uptake (Liver [3]) [µg/g] | further results |
| --- | --- | --- | --- | --- |
| CCCCCCCCCCCC(c1ccccc1)c1c(O)c2ccccc2oc1=O (stereo not given) | 30 | 1 | 0.7 | – |
| CCCCCCCCCCCC(c1ccc(OC)cc1)c1c(O)c2ccccc2oc1=O (stereo not given) | 100 | – | – | – |
| CCCCCCCCCCCC(c1ccc(C(C)(C)C)cc1)c1c(O)c2ccccc2oc1=O (stereo not given) | 22000 | – | – | – |
| CCCCCCCCCCCc1c(O)c2ccccc2oc1=O | 60 | – | – | – |
| CCC(c1ccccc1)c1c(O)c2ccccc2oc1=O (stereo not given) [PHENPROCOUMON] | 200 | 5.5 | 12.8 | Drug uptake (Liver [4]): 1.7 µg/g |
| CCCCCCc1c(O)c2ccccc2oc1=O | 3900 | – | – | – |
| C/C(=C\Cc1c(O)c2ccccc2oc1=O)CCCC(C)CCCC(C)CCCC(C)C (stereo not given) | 20 | 1 | – | Drug uptake (Liver [5]): 1.3 µg/g |
| CCCCCCCCc1c(O)c2ccccc2oc1=O | 260 | – | – | – |
| CCCCCCCCCCCC(c1ccc(Cl)cc1)c1c(O)c2ccccc2oc1=O (stereo not given) | 20 | 4 | 3 | fold change (FC) (Rattus norvegicus [6]): 1; fold change (FC) (Rattus norvegicus [7]): 1; Drug uptake (Liver [8]): 13 µg; Drug uptake (Liver [4]): 1 µg/g |
| CCCCCCCCCCCC(c1ccc(Cl)cc1Cl)c1c(O)c2ccccc2oc1=O (stereo not given) | 90 | 2 | 3.5 | fold change (FC) (Rattus norvegicus [7]): 1; Drug uptake (Liver [4]): 0.7 µg/g |
| CCCCCCCCCCCCc1c(O)c2ccccc2oc1=O | 50 | 1 | 0.7 | – |
| CCCCCCCCCCCC(c1ccc(F)cc1)c1c(O)c2ccccc2oc1=O (stereo not given) | 20 | 2 | 0.7 | – |
| CCCCCCCCCCc1c(O)c2ccccc2oc1=O | 90 | – | – | – |
| CC(C)CCCC(C)CCCC(C)CCCC(C)CCc1c(O)c2ccccc2oc1=O (stereo not given) | 50 | 1 | – | Drug uptake (Liver [5]; BLD = below limit of detection): Bld |
| CC(C)CCCC(C)CCCC(C)CCCC(C)CC(c1ccccc1)c1c(O)c2ccccc2oc1=O (stereo not given) | 200 | 1 | – | Drug uptake (Liver [5]; BLD = below limit of detection): Bld |

— ChEMBL document CHEMBL4004874, “Synthesis and biological evaluation of C-3 aliphatic coumarins as vitamin K antagonists” (Bioorg Med Chem Lett, 2017)
